A short description of the data set: Iodide concentration in plasma of treated human volunteers by ion chromatography with amperometric detection. The class given is in vivo. As to conditions: plasma samples from human volunteers treated with various dosages of sodium iodide, protein precipitation with acetonitrile. As for the experimental part:
Plasma samples were obtained from Bioreclamation IVT in 10 mL aliquots of frozen plasma in lithium heparin. The plasma samples were normal plasma samples obtained from healthy male and female volunteers who were not treated with iodide. The plasma samples were prepared according to the following protocol. • 0.5 mL plasma was diluted 3:1 with pure acetonitrile for protein precipitation before analysis by Amperometric detection. (ex: 0.5 mL […] plus 1.5 mL pure Acetonitrile) • Samples were mixed gently and then centrifuged at max speed (14,000 rpm or 20,817 rcf) for 2 minutes. • Supernatant was carefully removed as to not disturb protein pellet, and transferred to a clean Eppendorf tube. • Supernatants were again centrifuged at max speed for 2 minutes. • Samples were spiked as necessary with NaI to fall between 2.5 and 200 ppb NaI concentrations. • 270 μL or 1 mL volumes of samples were analyzed by Amperometric detection on IC against a standard curve in a diluent matrix.
Plasma samples were obtained from human volunteers treated with various dosages of sodium iodide. The plasma samples were processed and sodium iodide concentrations determined essentially as described in Example 3.

Structures are written as SMILES.

From US20200096496A1, “IODIDE DETECTION IN BLOOD PLASMA SAMPLES” (Faraday Pharmaceuticals, Inc., priority 2017, published 2020) come the findings set out here.

For `[I-].[Na+]` [sodium iodide], the “determined serum concentrations of sodium iodide” value is recorded as “positively correlated with dosages administered”.
